Source: US20030175810A1, “Assay method and system for identification of P2Y receptor agonists and antagonists” (priority 2000, published 2003)
Blank lines part the entries; values can stand above or below the molecule they belong to.

What was measured:
P2Y1 receptor = target: T1, P2Y1 receptor (Homo sapiens, UniProt P47900); assay: steady state GTP hydrolysis by purified P2Y1-R reconstituted with Gα11 and Gβ1γ2 in proteoliposomes; type: biochemical
T1 construct: hexahistidine; made in house; host or cells: baculovirus / Sf9 insect cells are named only as a preferred embodiment
T1 sequence (P47900 whole entry): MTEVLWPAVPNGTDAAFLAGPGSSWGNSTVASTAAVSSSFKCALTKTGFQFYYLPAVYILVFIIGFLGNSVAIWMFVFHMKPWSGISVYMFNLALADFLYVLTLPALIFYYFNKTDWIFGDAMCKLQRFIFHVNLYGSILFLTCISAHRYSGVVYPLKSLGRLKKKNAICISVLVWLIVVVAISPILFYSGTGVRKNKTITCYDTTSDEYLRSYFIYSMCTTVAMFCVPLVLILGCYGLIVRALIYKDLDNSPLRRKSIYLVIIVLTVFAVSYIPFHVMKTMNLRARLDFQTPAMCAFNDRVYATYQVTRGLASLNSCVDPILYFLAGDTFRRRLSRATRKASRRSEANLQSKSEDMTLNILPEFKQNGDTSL
Description: Purified human P2Y1-R, Gα11, and Gβ1y2 were reconstituted in phospholipid vesicles.
In a glass tube, the following lipid solutions, which are made by solubilizing the lipids in chloroform, are combined: 11 μl PE (10 mg/ml), 7 μl PS (10 mg/ml), 4 μl cholesteryl hemisuccinate (2 mM). The mixture is dried under a stream of N2 or argon to prevent oxidation. The lipids are then dissolved in a buffer containing deoxycholate at 0.4% and sonicated to ensure complete solubilization. Proteins are added sequentially: 50 pmol of the appropriate G protein α subunit, 150 pmol Gβγ and 15 pmol of P2Y receptor. The mixture is passed over a sizing column to isolate the vesicles from the single components and the detergent. Isolated vesicles can then used for the GTP hydrolysis assays for which they can be diluted depending on their quality.
(§1) In a steady state embodiment of the present invention, vesicles are combined with agonists, GAP proteins γ-[^32P] labeled GTP, all in an appropriate buffer system. The assay is then incubated at between 20° C. and 30° C. for various times. P2Y receptor-promoted activity is measured as released ^32P, which is separated from [γ-^32P]GTP after the assay is halted by transfer to ice and addition of ice cold 5% slurry or activated charcoal in 20 mM phosphoric acid. See Biddlecome et al., J. Biol. Chem. 271: 7999-8007.
The P2Y1 receptor was expressed, purified and reconstituted into vesicles as described herein. GTP hydrolysis was measured by incubation of vesicles with 2 μM [γ^32P]GTP and quantitation of released [^32P]Pi.

[1] = system: P2Y1 receptor/Gαq/β1γ2 vesicles; assay: promotion of 2MeSADP-stimulated GTPase activity of P2Y1 receptor/Gαq/β1γ2 vesicles; type: biochemical; details: 1 μM 2MeSADP, FIG. 4 and 5
Description: Purified P2Y1-R was reconstituted with Gαq and Gβ1y2.
FIG. 5 is a line graph depicting promotion of 2MeSADP-stimulated GTP hydrolysis by phospholipase C-β1. P2Y1-R was reconstituted with Gαq and Gβ1y2.
as §1
The selectivity of the P2Y1 receptor for coupling to various G proteins, and the selectivity of RGS proteins and phospholipase C-β isoenzymes for promoting GTPase activities were studied.

stimulation of GTPase activity over basal (P2Y1 receptor; agonist together with RGS4, FIG. 2A): up to 100 fold
EC70 concentration of agonist (P2Y1 receptor; concentration used to identify antagonists): approximately 50 nM
hydrolysis of GTP on addition of agonist (P2Y1 receptor; in the presence of RGS4, FIG. 1): marked increase
Molecule: 2-methylthioadenosine 5′-diphosphate [2MeSADP]

agonist versus antagonist nature at the P2Y1 receptor (P2Y1 receptor; in the absence of receptor reserve): pure antagonist
Molecule: Nc1ncnc2c1ncn2[C@@H]1O[C@H](COP(=O)(O)OP(=O)(O)OP(=O)(O)O)[C@@H](O)[C@H]1O [ATP, adenosine 5′-triphosphate]

B1: Phospholipase C-β1: phospholipase C-β isoenzyme stimulating GTPase activity of Gαq (protein, UniProt Q9NQ66 1-1216, looked up)
1-phosphatidylinositol …: MAGAQPGVHALQLKPVCVSDSLKKGTKFVKWDDDSTIVTPIILRTDPQGFFFYWTDQNKETELLDLSLVKDARCGRHAKAPKDPKLRELLDVGNIGRLEQRMITVVYGPDLVNISHLNLVAFQEEVAKEWTNEVFSLATNLLAQNMSRDAFLEKAYTKLKLQVTPEGRIPLKNIYRLFSADRKRVETALEACSLPSSRNDSIPQEDFTPEVYRVFLNNLCPRPEIDNIFSEFGAKSKPYLTVDQMMDFINLKQRDPRLNEILYPPLKQEQVQVLIEKYEPNNSLARKGQISVDGFMRYLSGEENGVVSPEKLDLNEDMSQPLSHYFINSSHNTYLTAGQLAGNSSVEMYRQVLLSGCRCVELDCWKGRTAEEEPVITHGFTMTTEISFKEVIEAIAECAFKTSPFPILLSFENHVDSPKQQAKMAEYCRLIFGDALLMEPLEKYPLESGVPLPSPMDLMYKILVKNKKKSHKSSEGSGKKKLSEQASNTYSDSSSMFEPSSPGAGEADTESDDDDDDDDCKKSSMDEGTAGSEAMATEEMSNLVNYIQPVKFESFEISKKRNKSFEMSSFVETKGLEQLTKSPVEFVEYNKMQLSRIYPKGTRVDSSNYMPQLFWNAGCQMVALNFQTMDLAMQINMGMYEYNGKSGYRLKPEFMRRPDKHFDPFTEGIVDGIVANTLSVKIISGQFLSDKKVGTYVEVDMFGLPVDTRRKAFKTKTSQGNAVNPVWEEEPIVFKKVVLPTLACLRIAVYEEGGKFIGHRILPVQAIRPGYHYICLRNERNQPLTLPAVFVYIEVKDYVPDTYADVIEALSNPIRYVNLMEQRAKQLAALTLEDEEEVKKEADPGETPSEAPSEARTTPAENGVNHTTTLTPKPPSQALHSQPAPGSVKAPAKTEDLIQSVLTEVEAQTIEELKQQKSFVKLQKKHYKEMKDLVKRHHKKTTDLIKEHTTKYNEIQNDYLRRRAALEKSAKKDSKKKSEPSSPDHGSSTIEQDLAALDAEMTQKLIDLKDKQQQQLLNLRQEQYYSEKYQKREHIKLLIQKLTDVAEECQNNQLKKLKEICEKEKKELKKKMDKKRQEKITEAKSKDKSQMEEEKTEMIRSYIQEVVQYIKRLEEAQSKRQEKLVEKHKEIRQQILDEKPKLQVELEQEYQDKFKRLPLEILEFVQEAMKGKISEDSNHGSAPLSLSSDPGKVNHKTPSSEELGGDIPGKEFDTPL
promotion of GTPase activity (potency and efficacy in words) [1]: potent and efficacious stimulator
